Legend:
[1] = tested on: four dental plaque organisms; test: MIC test on the four dental plaque organisms, summary in words; type: cell-based; details: without TCHE
Experimental: (§1) Slurries and solutions described below are prepared to determine effectiveness in terms of minimum inhibitory concentration (MIC) of various antibacterial agents against a variety of oral bacterial organisms implicated in formation of plaque and leading to gingivitis on dental surfaces. Soft plaque contains about 1.7×10^11 organism/gm. (net weight). The antibacterial agents are admixed with anionic materials, particularly anionic surface active agent often commonly employed in oral compositions and polyphosphate anticalculus agent.
(§2) Minimum inhibitory concentration (MIC) of antibacterial agent is used to evaluate the efficacy of the agent in vitro. […] The smaller the MIC value the greater is the efficacy of the antibacterial agent to inhibit the growth of the bacteria. The in vitro MIC data is related to the efficacy of the dentifrice in vivo since retention and release of antibacterial agent into the oral cavity after toothbrushing is in the range of mcg/ml.

[2] = human clinical tests, reduction of plaque formation; type: in vivo
Bacteriodes gingivalis [3] = test: Minimum inhibitory concentration (MIC) against Bacteriodes gingivalis, in vitro; type: cell-based
Experimental: as §1, §2

Bacteriodes intermedius = test: Minimum inhibitory concentration (MIC) against Bacteriodes intermedius, in vitro; type: cell-based
Experimental: as §1, §2

[4] = tested on: Actinobacillus actinomycetemcomitans; test: Minimum inhibitory concentration (MIC) against Actinobacillus actinomycetemcomitans, in vitro; type: cell-based
Experimental: as §1, §2

Streptococcus mutans = test: Minimum inhibitory concentration (MIC) against Streptococcus mutans, in vitro; type: cell-based
Experimental: as §1, §2

Bacteriodes gingivalis [5] = test: inhibition of growth of Bacteriodes gingivalis by dentifrice extracts; type: cell-based; details: dentifrice containing anionic surfactant plus pyrophosphate with enzyme inhibitors Gantrez and NaF
Experimental: The dentifrice described in Example 3A is compared with the same composition except without any TCHE and with added 0.50 parts of water. Aqueous extracts of each dentifrice are prepared as follows: 50 ml of distilled water is added to 1.0 gm of each dentifrice, mixed well for a couple of hours with stirring bar and centrifuged, after which the supernatant is collected as aqueous extract. Antibacterial activity of the dentifrice extracts are evaluated on Bacteriodes gingivalis.

[6] = 0.5% TCHE, 1% SLS, 1% Gantrez, 2% Pyrophosphate and 0.2% NaF in water

In the case of `CCCCCCCCCCCCOS(=O)(=O)[O-].[Na+]` [SLS, sodium lauryl sulfate], the “antibacterial effect” value [1] is reported as “ineffective”.
In the case of `CC(C)(C)CC(C)(C)c1ccc(OCCOCC[N+](C)(C)Cc2ccccc2)cc1` [BTC, benzethonium chloride], the reducing plaque formation ([2]; 0.075% BTC and 1% pyrophosphate dissolved in water) is reported as “is not” and the reducing plaque formation ([2]; 0.075% BTC dissolved in water) is reported as “effective in reducing plaque formation”.
For `N=C(NCCCCCCNC(=N)NC(=N)Nc1ccc(Cl)cc1)NC(=N)Nc1ccc(Cl)cc1` [CH, chlorhexidine digluconate], the reducing plaque formation ([2]; 0.1% CH and 1% sodium N-lauroyl sarcosinate dissolved in water) was “is not” and the reducing plaque formation ([2]; 0.1% CH dissolved in water) was “effective in reducing plaque formation”.
With `Oc1cc(Cl)ccc1Oc1ccc(Cl)cc1Cl` [TCHE, 2,4,4'-trichloro-2'-hydroxydiphenyl ether] the “Minimum Inhibition Concentration (MIC), Bacteriodes gingivalis” value (Bacteriodes gingivalis [3]; 0.5% TCHE and 1% SLS in water) was 2.5 µg/mL, the “Minimum Inhibition Concentration (MIC), Bacteriodes gingivalis” value (Bacteriodes gingivalis [3]; [6]) was 2.5 µg/mL and the “Minimum Inhibition Concentration (MIC), Bacteriodes intermedius” value (Bacteriodes intermedius; 0.5% TCHE and 1% SLS in water) was 2.5 µg/mL. For the same compound, the “Minimum Inhibition Concentration (MIC), Bacteriodes intermedius” value (Bacteriodes intermedius; [6]) was 2.5 µg/mL, the “Minimum Inhibition Concentration (MIC), Actinobacillus actinomycetemcomitans” value ([4]; 0.5% TCHE and 1% SLS in water) was 5.0 µg/mL and the “Minimum Inhibition Concentration (MIC), Actinobacillus actinomycetemcomitans” value [4, 6] was 5.0 µg/mL. For the same compound, the “Minimum Inhibition Concentration (MIC), Streptococcus mutans” value (Streptococcus mutans; 0.5% TCHE and 1% SLS in water) was 25.0 µg/mL, the “Minimum Inhibition Concentration (MIC), Streptococcus mutans” value (Streptococcus mutans; [6]) was 25.0 µg/mL and the “compatibility in dentifrice composition” value (Bacteriodes gingivalis [5]) was “compatible”.
